Test results reported in US12227482B2, “Compounds and compositions for the treatment of cancer” (The Regents of the University of California, priority 2016, dated 2025).

What was measured:
Assay type in all cases: cell-based
Details in all cases: 72 hours treatment, cell survival by CellTiter-Glo, 2% fetal bovine serum
[1] = tested on: LOX cells; experiment: Cell viability (CellTiter-Glo ATP content) in LOX cells
Method in brief: (§1)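 Cells plated at 5,000 per well in antibiotic-free RPMI with 2% FBS, treated next day in triplicate with increasing compound doses (final DMSO 0.5%) for 72 hours. Viability read as ATP content by CellTiter-Glo luminescence; percent survival relative to vehicle control set as 100%.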

[2] = tested on: MelJuSo cells; experiment: Cell viability (CellTiter-Glo ATP content) in MelJuSo cells
Method in brief: as §1

[3] = tested on: A549 cells; experiment: Cell viability (CellTiter-Glo ATP content) in A549 cells
Method in brief: as §1

SMILES	IC50 ([1]; LOX, 72 h) [µM]	IC50 ([2]; Homo sapiens, MEL-JUSO) [µM]	IC50 ([3]; Homo sapiens, A549, 72 h) [µM]	IC50 [1] [µM]	IC50 [2] [µM]	IC50 [3] [µM]
COC(=O)CNC(=O)C1(C)C(c2ccoc2)C(c2ccc(F)cc2F)=NN1c1ccc(F)cc1F (stereo not drawn) [Compound 131, methyl 2-(1,3-bis(2,4-difluorophenyl)-4-(furan-3-yl)-5-methyl-4,5-dihydro-1H-pyrazole-5-carboxamido)acetate]	0.5 to 1	0.25 to 0.5	0.5 to 1			
COC(=O)[C@H](C)NC(=O)C1(C)C(c2ccoc2)C(c2ccc(F)cc2F)=NN1c1ccc(F)cc1F (stereo partly drawn) [Compound 132, (2S)-methyl 2-(1,3-bis(2,4-difluorophenyl)-4-(furan-3-yl)-5-methyl-4,5-dihydro-1H-pyrazole-5-carboxamido)propanoate]	> 2	> 2	> 2			
CC(C)(CO)CCCNC(=O)C1(C)C(c2ccc(Cl)o2)C(c2ccc(F)cc2F)=NN1c1ccc(F)cc1F (stereo not drawn) [Compound 133, 4-(5-chlorofuran-2-yl)-1,3-bis(2,4-difluorophenyl)-N-(5-hydroxy-4,4-dimethylpentyl)-5-methyl-4,5-dihydro-1H-pyrazole-5-carboxamide]	< 0.25	< 0.25	< 0.25			
COC(=O)CNC(=O)C1(C)C(c2ccc(Cl)o2)C(c2ccc(F)cc2F)=NN1c1ccc(F)cc1F (stereo not drawn) [Compound 134, methyl 2-(4-(5-chlorofuran-2-yl)-1,3-bis(2,4-difluorophenyl)-5-methyl-4,5-dihydro-1H-pyrazole-5-carboxamido)acetate]				< 0.25	< 0.25	< 0.25
CN1CCOC(CNC(=O)C2(C)C(c3ccc(Cl)o3)C(c3ccc(F)cc3F)=NN2c2ccc(F)cc2F)C1 (stereo not drawn) [Compound 135, 4-(5-chlorofuran-2-yl)-1,3-bis(2,4-difluorophenyl)-5-methyl-N-((4-methylmorpholin-2-yl)methyl)-4,5-dihydro-1H-pyrazole-5-carboxamide]	< 0.25	< 0.25	< 0.25			
CC(C)(CO)CCCNC(=O)C1(C)C(c2ccc(F)cc2F)=NN(c2ccc(F)cc2F)C1c1ccc(Cl)o1 (stereo not drawn) [Compound 136, 5-(5-chlorofuran-2-yl)-1,3-bis(2,4-difluorophenyl)-N-(5-hydroxy-4,4-dimethylpentyl)-4-methyl-4,5-dihydro-1H-pyrazole-4-carboxamide]	> 2	1 to 2	> 2			
COC(=O)CNC(=O)C1(C)C(c2ccc(F)cc2F)=NN(c2ccc(F)cc2F)C1c1ccc(Cl)o1 (stereo not drawn) [Compound 137, methyl 2-(5-(5-chlorofuran-2-yl)-1,3-bis(2,4-difluorophenyl)-4-methyl-4,5-dihydro-1H-pyrazole-4-carboxamido)acetate]	> 2	0.5 to 1	> 2			
CC(C)(C)OC(=O)N1CCOC(CNC(=O)C2(C)C(c3ccc(Cl)o3)C(c3ccc(F)cc3F)=NN2c2ccc(F)cc2F)C1 (stereo not drawn) [Compound 138, tert-butyl 2-((4-(5-chlorofuran-2-yl)-1,3-bis(2,4-difluorophenyl)-5-methyl-4,5-dihydro-1H-pyrazole-5-carboxamido)methyl)morpholine-4-carboxylate]	> 2	> 2	> 2			
